Measurements published in US20240270810A1, “PREPARATION AND APPLICATION OF POLYPEPTIDE” (GUANGDONG RAYNOVENT BIOTECH CO., LTD., priority 2021, published 2024).

How the values were obtained:
GLP-1R = target: T1, GLP-1R (Homo sapiens, UniProt P43220); assay: In vitro GLP-1R agonistic activity test (cAMP kit); type: cell-based; conditions: HEK293 host cells
T1 construct: host or cells: HEK293

human plasma albumin = type: in vitro ADME
Method: (§1) To study the binding of the test compounds to human/mouse plasma albumin. • 1. Blank matrix preparation: On the day of the experiment, the plasma was thawed in cold water and centrifuged at 3220 rpm for 5 min to remove all the blood clots. The pH of the resulting plasma was measured and adjusted to 7.4±0.1 with 1% of phosphoric acid or 1 N of sodium hydroxide as desired. • 2. Dilution of the test compounds: the test compounds were dissolved in dimethyl sulfoxide (DMSO) to prepare stock solutions of 10 mM and 2 mM, respectively. 2 μL of the stock solution (2 mM) was diluted with 98 μL of DMSO to obtain a working solution of 40 μM. 10 μL of the stock solution was diluted with 240 μL of DMSO to obtain a working solution of control compounds of 400 μM. A working solution of the compounds (5 μL) was mixed evenly with a blank matrix (995 μL) at a ratio of 1:200 to prepare a loading matrix. • 3. Analytical procedure • 3.1 Equal amounts of 30 μL of the loading matrix (n=2) were transferred into a sample collection plate to prepare Time 0 (T0) samples for residue determination. The samples were immediately matched with corresponding blank buffer to a final volume of 60 μL, with a volume ratio of plasma (the loading matrix) to buffer being 1:1 in each well. Then, into the T0 samples of the test compounds were respectively added 60 μL of 4% H3PO4 in H2O and 480 μL of stop solution containing internal standard. They were then stored at 2° C. to 8° C. together with other samples for further treatment. • 3.2 The remaining plasma samples were pre-incubated in a carbon dioxide incubator at 37±1° C. for 30 min. Protein-free samples (F samples) were prepared. Matrix-loaded samples (230 μL) were all transferred into polycarbonate tubes (n=2) and ultracentrifuged at 37° C. and 155,000×g (35000 rpm) for 4 h. • 3.3 To prepare T samples (test samples), an additional matrix-containing sample was transferred into a separate 96-well plate (sample incubation plate) and incubated at 37° C. for 4 h. • 3.4 At the end of centrifugation, 30 μL of protein-free samples (F samples) and 30 μL of T samples were taken from the second layer (beneath the upper layer) of the supernatant and transferred into a new sample collection plate. Each sample was mixed with corresponding blank buffer or matrix to a final volume of 60 μL, and the blank matrix:buffer volume ratio is 1:1. Into all the samples were added 60 μL of 4% H3PO4 solution in water and 480 μL of stop solution containing internal standard. The mixture was centrifuged at 4000 rpm for 20 min. 100 μL of supernatant for each sample was taken for LC-MS/MS analysis.

mouse plasma albumin = type: in vitro ADME
Method: as §1

T1 sequence (P43220 24-463, species assumed): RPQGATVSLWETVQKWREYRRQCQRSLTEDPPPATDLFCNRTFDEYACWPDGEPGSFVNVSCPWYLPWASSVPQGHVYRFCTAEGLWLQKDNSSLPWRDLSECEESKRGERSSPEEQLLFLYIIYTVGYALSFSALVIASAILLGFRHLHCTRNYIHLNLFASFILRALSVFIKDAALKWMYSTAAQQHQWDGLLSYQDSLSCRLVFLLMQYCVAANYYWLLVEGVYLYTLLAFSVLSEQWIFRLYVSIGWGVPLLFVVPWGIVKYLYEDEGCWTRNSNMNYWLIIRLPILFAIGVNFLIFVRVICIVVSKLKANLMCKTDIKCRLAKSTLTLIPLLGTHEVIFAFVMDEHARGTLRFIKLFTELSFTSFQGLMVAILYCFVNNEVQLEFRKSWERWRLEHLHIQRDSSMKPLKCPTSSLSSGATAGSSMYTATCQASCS

CC[C@H](C)[C@H](NC(=O)[C@H](CC(C)C)NC(=O)[C@H](Cc1c[nH]c2ccccc12)NC(=O)[C@H](CCC(=O)O)NC(=O)[C@@H](NC(=O)[C@H](Cc1ccccc1)NC(=O)[C@H](C)NC(=O)[C@@H]1CCCCNC(=O)CN(C(=O)COCCOCCNC(=O)COCCOCCNC(=O)CC[C@H](NC(=O)CCCCCCCCCCCCCCCCCCC(=O)O)C(=O)O)CC(=O)NCCCC[C@H](NC(=O)[C@H](CCCCN)NC(=O)[C@H](CC(=O)O)NC(=O)[C@H](CC(C)C)NC(=O)C(C)(C)NC(=O)[C@@H](NC(=O)[C@H](CO)NC(=O)[C@H](Cc2ccc(O)cc2)NC(=O)[C@H](CC(=O)O)NC(=O)[C@H](CO)NC(=O)[C@@H](NC(=O)[C@H](Cc2ccccc2)NC(=O)[C@@H](NC(=O)CNC(=O)[C@H](CCC(=O)O)NC(=O)C(C)(C)NC(=O)[C@@H](N)Cc2ccc(O)cc2)[C@@H](C)O)[C@@H](C)O)[C@@H](C)CC)C(=O)N[C@@H](C)C(=O)N[C@@H](CCC(N)=O)C(=O)N1)C(C)C)C(=O)N[C@@H](C)C(=O)NCC(=O)NCC(=O)N1CCC[C@H]1C(=O)N[C@@H](CO)C(=O)N[C@@H](CO)C(=O)NCC(=O)N[C@@H](C)C(=O)N1CCC[C@H]1C(=O)N1CCC[C@H]1C(=O)N1CCC[C@H]1C(=O)N[C@@H](CO)C(N)=O [WX-005]
EC50 (GLP-1R; with 1% HSA): 7.63 nM | EC50 (GLP-1R; without 1% HSA): 0.036 nM | PPB % unbound (H/M), H (human plasma albumin): NA/NA | PPB % unbound (H/M), M (mouse plasma albumin): NA/NA

CC[C@H](C)[C@H](NC(=O)[C@H](CC(C)C)NC(=O)[C@H](Cc1c[nH]c2ccccc12)NC(=O)[C@H](CCC(=O)O)NC(=O)[C@@H](NC(=O)[C@H](Cc1ccccc1)NC(=O)[C@H](CCC(=O)O)NC(=O)[C@@H]1CCCCNC(=O)CN(C(=O)COCCOCCNC(=O)COCCOCCNC(=O)CC[C@H](NC(=O)CCCCCCCCCCCCCCCCCCC(=O)O)C(=O)O)CC(=O)NCCCC[C@H](NC(=O)[C@H](CCCCN)NC(=O)[C@H](CC(=O)O)NC(=O)[C@H](CC(C)C)NC(=O)C(C)(C)NC(=O)[C@@H](NC(=O)[C@H](CO)NC(=O)[C@H](Cc2ccc(O)cc2)NC(=O)[C@H](CC(=O)O)NC(=O)[C@H](CO)NC(=O)[C@@H](NC(=O)[C@H](Cc2ccccc2)NC(=O)[C@@H](NC(=O)CNC(=O)[C@H](CCC(=O)O)NC(=O)C(C)(C)NC(=O)[C@@H](N)Cc2ccc(O)cc2)[C@@H](C)O)[C@@H](C)O)[C@@H](C)CC)C(=O)N[C@@H](C)C(=O)N[C@@H](CCC(N)=O)C(=O)N1)C(C)C)C(=O)N[C@@H](C)C(=O)NCC(=O)NCC(=O)N1CCC[C@H]1C(=O)N[C@@H](CO)C(=O)N[C@@H](CO)C(=O)NCC(=O)N[C@@H](C)C(=O)N1CCC[C@H]1C(=O)N1CCC[C@H]1C(=O)N1CCC[C@H]1C(=O)N[C@@H](CO)C(N)=O [WX-009]
EC50 (GLP-1R; without 1% HSA): 0.014 nM | PPB % unbound (H/M), H (human plasma albumin): NA/NA | PPB % unbound (H/M), M (mouse plasma albumin): NA/NA
